Results reported in patent publication US20040258633A1, “Composition containing monoterpenes for topical oral administration” (Gisol Ltd., priority 2000, published 2004).

assay: Example 5 salt solution mouth wash, periodontal index (PI); type: in vivo; conditions: 10% salt solution mouth wash, 30 seconds, twice a day, for a week; point of origin = 1
Protocol: Using solutions having a concentration of 10% the salts presented in table 3 below were applied after tooth brushing, in the form of a mouth wash. The mouth wash was applied for 30 seconds, twice a day, for a week. The following results were measured according to the periodontal index (PI): […]

Point of comparison: `[Br-].[Br-].[Mg+2]` [MgBr2], “PI (periodontal index)” value 1.58. Against it:
- [Cl-].[K+] [Kcl] — lower, 1.47
- [Cl-].[Na+] [NaCl] — lower, 1.32
